Read-outs that look alike come from different tables or passages of the source.
Assays:
[1] = Tiotropium maximum solubility in a selection of excipients; assay type: physicochemical
Procedure: For the evaluation of the compatibility of the active in each excipient, 25 mg of tiotropium bromide (TTB) were weighed in suitable glass containers and increasing amounts of the appropriate solvent were added. The samples were subjected to heating and ultrasonication when necessary. The appearance of the mixture and the maximum concentration of TTB in each solvent was recorded.
The solubility of the active was determined in different excipients (polymer solvents, permeation enhancers, surfactants, emollients, etc.). Table 1 summarizes the maximum solubility achieved in each of them.

[2] = cited from earlier work

In the case of `C[N+]1(C)[C@@H]2CC(OC(=O)C(O)(c3cccs3)c3cccs3)C[C@H]1[C@@H]1O[C@@H]12.[Br-]` (stereo partly drawn) [Tiotropium bromide, [(1S,2S,4R,5R)-9,9-dimethyl-3-oxa-9-azoniatricyclo[3.3.1.0^2,4]nonan-7-yl]2-hydroxy-2,2-dithiophen-2-ylacetate bromide], the Maximum solubility ([1]; in 1,3-propanediol) was 2.50 % (w/w), the Maximum solubility ([1]; in Benzyl Alcohol) was 50.00 % (w/w) and the Maximum solubility ([1]; in Cremophor EL) was 0.20 % (w/w). For the same compound, the Maximum solubility ([1]; in Cremophor RH40) was <0.12 % (w/w), the Maximum solubility ([1]; in DMSO) was >30.00 % (w/w) and the Maximum solubility ([1]; in Dimethyl fomamide) was 40.00 % (w/w). The Maximum solubility ([1]; in Ethanol) was 0.80 % (w/w), the Maximum solubility ([1]; in Ethyl Oleate) was <0.12 % (w/w) and the Maximum solubility ([1]; in Glycerol) was 6.00 % (w/w). For the same compound, the Maximum solubility ([1]; in IPM) was <0.12 % (w/w), the Maximum solubility ([1]; in Isopropyl Alcohol) was 0.13 % (w/w) and the Maximum solubility ([1]; in Kollicream ® 3C) was <0.12 % (w/w). For the same compound, the Maximum solubility ([1]; in Labrasol) was 0.55 % (w/w), the Maximum solubility ([1]; in Lactic acid) was 20.00 % (w/w) and the Maximum solubility ([1]; in Linseed oil) was <0.12 % (w/w). For the same compound, the Maximum solubility ([1]; in MCT) was <0.12 % (w/w), the Maximum solubility ([1]; in Oleic acid) was <0.12 % (w/w) and the Maximum solubility ([1]; in PEG-400) was 1.67 % (w/w). The Maximum solubility ([1]; in Polysorbate 20) was 1.15 % (w/w), the Maximum solubility ([1]; in Polysorbate 80) was 0.20 % (w/w) and the Maximum solubility ([1]; in Propylene Glycol) was 5.00 % (w/w). The Maximum solubility ([1]; in Transcutol HP) was <0.12 % (w/w), the Maximum solubility ([1]; in Triacetin) was <0.12 % (w/w) and the Maximum solubility ([1]; in Triolein) was <0.12 % (w/w). For the same compound, the “solubility” value ([2]; in dimethyl sulphoxide) was “freely soluble”, the “solubility” value ([2]; in methanol) was “soluble” and the “solubility” value ([2]; in methylene chloride) was “practically insoluble”. For the same compound, the “solubility” value ([2]; in water) was “sparingly soluble” and the “solubility in aqueous solutions” value ([2]; room temperature, independent of pH) was “approx. 2.5%”.

Source: patent US20250025397A1, “AN OIL-IN-WATER EMULSION GEL COMPRISING TIOTROPIUM BROMIDE” (Dryox Health, S.L., priority 2021, published 2025)
